The values that follow come from ChEMBL document CHEMBL1154836, “Synthesis of glycoside derivatives of hydroxyanthraquinone with ability to dissolve and inhibit formation of crystals of calcium oxalate. Potential compounds in kidney stone therapy” (Eur J Med Chem, 2010).

Series [1] is described as follows: Induction of calcium oxalate dissolution assessed as increase in calcium concentration after 5 days by flame photometry relative to untreated control. Format: physicochemical. To be noted: 120 h.
Series [2] can be described thus: Inhibition of calcium oxalate crystal formation assessed as change of shift in titration end point by conductometric titration. Type of series: functional.
Series [3] can be described thus: Induction of surgically removed human kidney stone dissolution assessed as increase in calcium concentration after 5 days by flame photometry relative to untreated control. Format: functional.
Series [4] has as its system A549. Nature of the series: Cytotoxicity against human A549 cells at 500 ug/ml. Format: cell-based.
For series [5], the system named is L929. Nature of the series: Cytotoxicity against mouse L929 cells at 500 ug/ml. Format: cell-based.

On to `O=C1c2ccc(O)c(O)c2C(=O)c2c(O)ccc(O)c21` [QUINALIZARIN], for which the Activity came to 1324% in series [1], 90 µL in series [2] and 4167% in series [3].

On to `O=C1c2ccccc2C(=O)c2c1ccc(O[C@@H]1O[C@H](CO)[C@@H](O)[C@H](O)[C@H]1O)c2O`, for which the Activity entry in series [4] is “Non-toxic”; in series [1] it was 595%; in series [2] it was 80 µL; in series [5] it was “Non-toxic”; in series [3] it was 1583%.

As for `O=C1c2ccccc2C(=O)c2c(O[C@@H]3O[C@H](CO)[C@@H](O)[C@H](O)[C@H]3O)ccc(O)c21`, the Activity result in series [4] is “Non-toxic”; in series [1], 541%; in series [2], 60 µL; in series [5] it was “Non-toxic”; in series [3], 2000%.

As to `O=C1c2ccccc2C(=O)c2c1ccc(O)c2O` [ATHRAQUINONES A], the Activity result in series [4] is “Toxic”; in series [1], 246%; in series [2], 40 µL; in series [5], “Toxic”; in series [3], 717%.

As to `O=C1c2ccc(O[C@@H]3O[C@H](CO)[C@@H](O)[C@H](O)[C@H]3O)c(O)c2C(=O)c2c(O)ccc(O)c21`, the Activity in series [1] came to 1513%; in series [2] it was 180 µL; in series [3] it was 4833%.

As for `O=C1c2ccc(O[C@@H]3O[C@H](CO)[C@H](O)[C@H](O)[C@H]3O)c(O)c2C(=O)c2c(O)ccc(O)c21`, the results for the Activity in series [1], in series [2] and in series [3] were 513%, 170 µL and 1667%, respectively.

As for `O=C1c2ccccc2C(=O)c2c(O)ccc(O)c21` [QUINIZARIN], the Activity result in series [4] is “Toxic”; in series [1], 205%; in series [2], 30 µL; in series [5], “Toxic”; in series [3] it was 833%.

`O=C1c2ccccc2C(=O)c2c1ccc(O[C@@H]1O[C@H](CO)[C@H](O)[C@H](O)[C@H]1O)c2O`: the Activity entry was “Non-toxic” in series [4]; 432% in series [1]; 70 µL in series [2]; “Non-toxic” in series [5]; 1500% in series [3].
